Data on 103 compounds can be found in PubChem BioAssay AID1996.

Structures are written as SMILES. ≈ marks a conversion by molar mass, not a printed value.

The conditions of this data set: buffer; pH 7.4; 200.0 µM.
Turning to `Cc1cc(=O)[nH]c(SCC(=O)NC2CCCCCC2)n1`, the kinetic solubility is > 44.3 µg/mL.
`CC(C)c1ccc(CNC(=O)C(=O)NCCCn2ccnc2)cc1`: the kinetic solubility worked out at 45.4 µg/mL (≈ 138 µM).
For the compound `OCc1nc2ccccc2n1Cc1c(F)cccc1Cl`, the kinetic solubility came to 14.4 µg/mL (≈ 49.5 µM).
On to `CCCc1cc(=O)[nH]c(SCC(=O)Nc2cc(S(=O)(=O)N3CCOCC3)ccc2N(CC)CC)n1`, for which the kinetic solubility is > 78.6 µg/mL.
On to `Cc1ccc(C(=O)O/N=C(\N)c2ccccn2)c(C)c1`, for which the kinetic solubility was > 40.4 µg/mL.
The compound `CC(C)Cc1nc(Cl)c(C#N)c2c1CCC2` returned a solubility (kinetic) of 3.8 µg/mL (≈ 16.2 µM).
As for `COc1cccc(C(=O)NC2CC(C)(C)NC(C)(C)C2)c1OC`, the figure is > 48.1 µg/mL; as for `COc1cccc2c1OC1(CCN(C(C)C)CC1)N1N=C(c3cccnc3)CC21` (stereo not drawn), > 58.9 µg/mL.
The compound `CCn1c(C)c(C(=O)NCCc2ccccc2)c2cc(OC)ccc21` returned a solubility (kinetic) of 23 µg/mL (≈ 68.4 µM).
Then `Cc1cc(C)cc(OCC(=O)OCC(=O)NC2CCCC2)c1`, with 38.5 µg/mL (≈ 126 µM).
On to `O=C(N/N=C/c1ccccn1)C(O)c1ccccc1` (stereo not drawn), for which the kinetic solubility was > 38.3 µg/mL.
As for `Nc1nonc1C(=O)NCCNc1ccc([N+](=O)[O-])cc1`, the figure is 3.8 µg/mL (≈ 13 µM).
With `CCCCCCCCCCCCCCCC[N+](C)(C)CC.[Br-]`, the solubility (kinetic) was 34.5 µg/mL.
Then `N/C(COc1cccc(Cl)c1)=N\O`, with 20.1 µg/mL (≈ 100 µM).
`CCOC(=O)c1c(N)sc(N)c1C(=O)OCC` registered a kinetic solubility of 29.9 µg/mL (≈ 116 µM).
Take `COc1ccc(/C=C/C(=O)OCC(=O)NCc2ccccc2Cl)cc1OC`: the kinetic solubility came to 8.3 µg/mL (≈ 21.3 µM).
Take `CC(C)[C@H](NC(=O)c1ccccc1F)C(=O)Nc1ccc(F)c(F)c1`: the kinetic solubility was found to be 4.9 µg/mL (≈ 14 µM).
`Cn1c(=O)c2c(nc(N3CCOCC3)n2C/C=C/c2ccccc2)n(C)c1=O` registered a kinetic solubility of 51.9 µg/mL (≈ 136 µM).
Compound `O=C(OCc1ccccc1)c1cccnc1Cl` yielded a solubility (kinetic) of 32.5 µg/mL (≈ 131 µM).
`COc1ccc2c(c1)CCCC21NC(=O)N(CC(=O)NCc2cccs2)C1=O` (stereo not drawn): the solubility (kinetic) is > 59.9 µg/mL.
With `O=C(OCc1ccc([N+](=O)[O-])cc1)c1cc2ccccc2oc1=O`, the solubility (kinetic) was < 0.7 µg/mL.
Consider `O=C(c1ccco1)N1CCN(c2ccc([N+](=O)[O-])cn2)CC1`, for which the kinetic solubility is 18.3 µg/mL (≈ 60.5 µM).
On to `CS(=O)(=O)c1ccc(C(=O)OC2CCOC2=O)cc1[N+](=O)[O-]` (stereo not drawn), for which the kinetic solubility is > 49.4 µg/mL.
In turn, `CN1CCN(C(=S)NC(CC(=O)c2ccccc2)c2ccccc2)CC1` (stereo not drawn) returned a kinetic solubility of 43.2 µg/mL (≈ 118 µM).
Then `CC1(C2CC2)NC(=O)N(CC(=O)Nc2ccc(F)cc2F)C1=O` (stereo not drawn), with > 48.5 µg/mL.
On to `CCC(C)c1ccccc1OCCCN(C)Cc1ccccc1` (stereo not drawn), for which the solubility (kinetic) is 4.1 µg/mL (≈ 13.2 µM).
With `COc1ccc(C2C3=C(CCCC3=O)NC3=C2C(=O)c2ccccc23)cc1` (stereo not drawn), the solubility (kinetic) is < 0.8 µg/mL.
On to `CC(C)c1ccc(OCC(=O)N2CCCN(C)CC2)cc1`, for which the solubility (kinetic) was > 43.6 µg/mL.
`CCOc1ccc(-c2cn(-c3ccccc3OC)c(=S)[nH]2)cc1` returned a kinetic solubility of 17.7 µg/mL (≈ 54.2 µM).
`O=C(OCc1c(F)cccc1Cl)c1cnc(Cl)c(Cl)c1`: the kinetic solubility is < 0.7 µg/mL.
`O=C(CN1CCC(NC(=O)C2CC2)CC1)Nc1cccc(F)c1`: the kinetic solubility is > 47.9 µg/mL.
In the case of `O=C1CN(C(=O)CSc2ccccn2)c2ccccc2N1`, the kinetic solubility is > 44.9 µg/mL.
In turn, `Brc1ccc2c(c1)[C@H]1OCC[C@H]1[C@@H](c1cccs1)N2` showed a solubility (kinetic) of 1.4 µg/mL (≈ 4.16 µM).
Take `COc1ccc(NC(=S)Nc2cccc(C)n2)cc1`: the kinetic solubility was < 0.2 µg/mL.
Then `COc1ccc(N(C(=O)c2ccncc2)S(=O)(=O)c2ccc(F)cc2)cc1`, with 50.9 µg/mL (≈ 132 µM); and `COc1cccc2c3c(c(=O)[nH]c12)CC(C)(C)O3`, with > 36.8 µg/mL.
With `COc1ccccc1CC(=O)NC1CCCCCC1`, the kinetic solubility was 37.6 µg/mL (≈ 144 µM).
`O=C(c1cncc(Br)c1)N1CCN(S(=O)(=O)c2ccc3ccccc3c2)CC1` gave a solubility (kinetic) of 6.5 µg/mL (≈ 14.1 µM).
For the compound `Cc1nc2ccccc2cc1C(=O)Nc1ccccc1Cl`, the solubility (kinetic) turned out to be 6.7 µg/mL (≈ 22.6 µM).
`Cc1ccccc1/C=C/c1nc2ccccc2c(=O)[nH]1` displayed a kinetic solubility of 0.4 µg/mL (≈ 1.52 µM).
`O=C(c1cc(=O)[nH]c2ccccc12)N1CCc2ccccc2C1` showed a solubility (kinetic) of 42.9 µg/mL (≈ 141 µM).
The compound `O=C(Nc1cccc([N+](=O)[O-])c1)c1ccc(N2CCCC2=O)cc1` came in with a solubility (kinetic) of 1.5 µg/mL (≈ 4.61 µM).
Take `O=C(N/C=C\n1cnc2cc(C(F)(F)F)ccc21)c1ccc([N+](=O)[O-])cc1`: the solubility (kinetic) turned out to be 2.8 µg/mL (≈ 7.44 µM).
As for `Cc1cccc(NC(=O)Nc2cccnc2)c1C`, the figure is > 36.2 µg/mL.
`Cc1cccc(NC(=O)NC2(C)CCS(=O)(=O)C2)c1` (stereo not drawn): the kinetic solubility is > 42.4 µg/mL.
On to `CNS(=O)(=O)c1cccc(C(=O)NCC2CCCCC2)c1`, for which the kinetic solubility is > 46.6 µg/mL.
Then `CCOC(=O)N1CCN(S(=O)(=O)c2ccc(C)cc2)C1`, with 38 µg/mL (≈ 127 µM); and `Cc1cc(C)nc(SCC(=O)c2ccc(F)cc2)n1`, with 38.5 µg/mL (≈ 139 µM).
As for `Cc1ccc(N=C(NO)c2cnccc2C(F)(F)F)c(C)c1`, the figure is > 46.4 µg/mL; as for `N#Cc1ccc(OCCN2CCc3ccccc3C2)cc1`, 41 µg/mL (≈ 147 µM).
As for `O=C1N=C(N2CCOCC2)S/C1=C\c1ccncc1`, the figure is > 41.3 µg/mL; as for `Cc1cc(NC(=O)Cc2cc(F)cc(F)c2)no1`, 7.5 µg/mL (≈ 29.7 µM).
In the case of `CCCn1c(N)c(N2CCCCC2)c(=O)n(CC(=O)Nc2ccc(C(C)=O)cc2)c1=O`, the kinetic solubility is 14.8 µg/mL (≈ 34.6 µM).
In turn, `CC(C)(C)c1ccc(C(=O)NCc2ccco2)cc1` gave a kinetic solubility of 13.5 µg/mL (≈ 52.5 µM).
On to `CCOc1ccccc1NC(=S)NC1CC2CCC1C2` (stereo not drawn), for which the kinetic solubility is 5 µg/mL (≈ 17.2 µM).
As for `Cc1cc(-c2onc(C)c2C(N)=O)no1`, the figure is > 31.1 µg/mL; as for `O=C(NCc1ccccn1)C(=O)NCC(c1ccco1)N1CCOCC1` (stereo not drawn), > 53.8 µg/mL; as for `Cc1cccc(N2N=C(C(=O)OCC(=O)c3ccccc3)CCC2=O)c1`, > 52.6 µg/mL.
In turn, `Cc1ccccc1NC(=O)c1cc(-c2ccccc2)n(CCCN2CCOCC2)c1C` came in with a solubility (kinetic) of 16.3 µg/mL (≈ 39 µM).
`Cc1nc2ccc(C(=O)O)cc2c2c1CC(CN)O2` (stereo not drawn) returned a kinetic solubility of 19.7 µg/mL (≈ 76.3 µM).
As to `CCOc1ccc(NC(=O)CCc2ccc(C)o2)cc1`, the kinetic solubility is 10.5 µg/mL (≈ 38.4 µM).
Turning to `Cn1ncc(Cl)c1C(=O)N1CCC2(CC1)OCCO2`, the kinetic solubility is > 42.9 µg/mL.
Regarding `CC(C)(C)Nc1nc(Cl)nc(NCc2ccccc2)n1`, the kinetic solubility was 8 µg/mL (≈ 27.4 µM).
Turning to `O=C(COC(=O)C1CC2CCCC(C1)C2=O)Nc1cccc(F)c1` (stereo not drawn), the solubility (kinetic) is > 50 µg/mL.
`CCc1cccc(NC(=S)N2CCC(c3ccccc3)C2)c1` (stereo not drawn) came in with a kinetic solubility of 4.6 µg/mL (≈ 14.8 µM).
Turning to `O=C(NC1CCOc2ccccc21)c1ccccn1` (stereo not drawn), the kinetic solubility was determined as 36.1 µg/mL (≈ 142 µM).
Regarding `COc1cc2c(C(=O)O)c(C)n(C)c2cc1Br`, the solubility (kinetic) was > 44.7 µg/mL.
Take `Cc1csc(SCC(=O)Nc2ccc(F)cc2Cl)n1`: the solubility (kinetic) was > 47.5 µg/mL.
`COCCNC(=O)COc1cccc2c1OC(C)(C)C2`: the solubility (kinetic) was > 41.9 µg/mL.
Turning to `CCc1c(SCCC(=O)O)nc2ccccc2c1C`, the solubility (kinetic) was > 41.3 µg/mL.
In the case of `CC1=C(C)CC(C(=O)NC2CCCC2)C(C(=O)O)C1` (stereo not drawn), the kinetic solubility is > 39.8 µg/mL.
Regarding `Cn1cccc1C(=O)OCC(=O)Nc1ccc2c(c1)OCO2`, the kinetic solubility is 17.4 µg/mL (≈ 57.6 µM).
For the compound `CCNC(=S)/N=C(/Nc1ccccc1)Nc1nc(C)cc(C)n1`, the solubility (kinetic) was 0.8 µg/mL (≈ 2.44 µM).
Consider `CC(=O)c1ccccc1NC(=O)COC(=O)/C=C/c1ccc(C)o1`, for which the solubility (kinetic) was < 0.7 µg/mL.
Turning to `Cc1c(C(=O)N2CCN(c3ncccn3)CC2)oc2ccc(F)cc12`, the kinetic solubility came out at 9.5 µg/mL (≈ 27.9 µM).
On to `O=C(COC(=O)c1ccc[n+]([O-])c1)Nc1ccc([N+](=O)[O-])cc1C(F)(F)F`, for which the solubility (kinetic) was > 57.8 µg/mL.
Compound `COc1ccccc1CC(=O)NC12CC3CC(CC(C3)C1)C2` showed a solubility (kinetic) of 7.8 µg/mL (≈ 26.1 µM).
In turn, `C/C=C/COC(=O)C1=C(C)NC(=O)NC1c1ccc2c(c1)OCO2` (stereo not drawn) came in with a solubility (kinetic) of 15.5 µg/mL (≈ 46.9 µM).
In the case of `CC(=O)N1NC(=Nc2ccccc2)SC1(C)C`, the kinetic solubility was > 37.4 µg/mL.
`COc1ccccc1OCC(O)CN1CCOCC1` (stereo not drawn): the kinetic solubility was determined as 37.4 µg/mL (≈ 140 µM).
On to `O=C(CNC(=O)c1ccccc1F)NCc1ccccn1`, for which the solubility (kinetic) was > 43.1 µg/mL.
`CC(NC(=O)c1cc(Br)ccc1Cl)c1ccccc1` (stereo not drawn) had a kinetic solubility of 3.8 µg/mL (≈ 11.2 µM).
As for `CC(=O)Nc1c(NC(C)(C)C)c2ccccc2oc1=O`, the figure is > 41.1 µg/mL.
As for `Cc1cc(SC2CCOC2=O)nc2ccccc12` (stereo not drawn), the figure is 35.5 µg/mL (≈ 137 µM); as for `CSc1nc2sc3c(c2c(=O)n1CC(C)C)CC(C)(C)OC3`, < 0.4 µg/mL; as for `CO/N=C/c1c(-c2ccc(Cl)cc2)nc2cc(C)ccn12`, 0.3 µg/mL (≈ 1 µM).
Turning to `O=C1NC(=O)/C(=C/c2ccccn2)S1`, the kinetic solubility was > 30.9 µg/mL.
The compound `Cc1ccc(S(=O)(=O)N2CCOCC2)cc1C(=O)Nc1nc(-c2ccccn2)cs1` came in with a kinetic solubility of 23.9 µg/mL (≈ 53.8 µM).
Regarding `O=[N+]([O-])c1cccc(N=Cc2sc3ccccc3c2O)c1`, the solubility (kinetic) is < 0.3 µg/mL.
`CCOc1ccc(OCC(=O)Nc2ccc(S(N)(=O)=O)cc2)cc1` registered a kinetic solubility of 7.1 µg/mL (≈ 20.3 µM).
Compound `COC(=O)c1ccc(CNC(=O)[C@@H]2CCCN2S(=O)(=O)c2ccccc2F)cc1` registered a solubility (kinetic) of 60.7 µg/mL (≈ 144 µM).
`COc1ccc2nc(NC(=O)c3ccccc3F)sc2c1` came in with a kinetic solubility of 0.5 µg/mL (≈ 1.65 µM).
Take `CCCC(=O)Nc1c(-c2cccc(OC)c2)c(=O)c2ccccc2n1C`: the solubility (kinetic) was > 52.6 µg/mL.
For `Cc1cccc(C)c1OCCNC(=O)OCc1ccccc1`, the kinetic solubility is 15.8 µg/mL (≈ 52.8 µM).
On to `Cc1cccc(C(=O)NCC(=O)N2CCCCCCC2)c1`, for which the kinetic solubility was > 43.3 µg/mL.
As for `Cc1ccc(S(=O)(=O)N2CCOCC2)cc1NC(=O)CN1C(=O)NC(C)(c2ccc(Cl)cc2Cl)C1=O` (stereo not drawn), the figure is 46.1 µg/mL (≈ 83 µM); as for `Cc1ccc(C(=O)NC(C(=O)Nc2ccccc2)c2ccccc2)cc1` (stereo not drawn), 1 µg/mL (≈ 2.9 µM); as for `CCN1CCC(NCCc2ccc(F)cc2)CC1`, 24.9 µg/mL (≈ 99.5 µM).
In turn, `CCCOc1ccccc1NC(=O)c1ccc([N+](=O)[O-])cc1` returned a kinetic solubility of 4.1 µg/mL (≈ 13.7 µM).
As for `Cc1ccc(-n2nc(-c3ccco3)cc2C(=O)O)cc1`, the figure is > 40.2 µg/mL; as for `CCOc1ccc(C(C)=O)cc1Cc1c(O)[nH]c(=S)[nH]c1=O`, 46.3 µg/mL (≈ 145 µM).
Compound `CC(=O)Oc1ccccc1/C=C/c1nc2ccccc2c(=O)o1` yielded a kinetic solubility of 27.2 µg/mL (≈ 88.5 µM).
As for `COc1cccc(NC(=O)N2C3CCCC2CC(NC(=O)C2CC2)C3)c1` (stereo not drawn), the figure is 44.4 µg/mL (≈ 124 µM).
